Experimental data published in patent publication US20250170090A1, “METHOD FOR PREVENTING OR TREATING DISEASE OR DISORDER ASSOCIATED WITH ANTINEOPLASTIC AGENT” (ONQUALITY PHARMACEUTICALS CHINA LTD., priority 2022, published 2025).
Read-outs that look alike come from different tables or passages of the source.

What was measured:
[1] = system: hand-foot syndrome induced by anti-tumor agents; assay: Prevention of hand-foot syndrome induced by anti-tumor agents in rats, NO-NSAID ointment on hind paws (Table 2-2); assay type: in vivo, SD rats; conditions: Rattus norvegicus, topical, read-out: Control rate; for responders at 0.5 %: ointment 0.50% wt; for responders at 1 %: ointment 1% wt; for responders at 2.5 %: ointment 2.50% wt; for responders at 5 %: ointment 5% wt
Source text: A rat animal model was constructed, and the anti-tumor agents shown in Table 2-2 were respectively administered to 8-week-old female SD rats by daily oral gavage. […] Therefore, rats serve as an excellent animal model for simulating side effects (such as hand-foot syndrome) caused by anti-tumor agents.
After the rats (about 200 g) were fed and adapted for one week, they were divided into a NO-NSAID group and a control group, with 10 rats in each group, and a gavage administration test was conducted. The various anti-tumor agents were dissolve in a mixed solution of Cremophor EL:ethanol=1:1. The anti-tumor agent solution were diluted with PBS to the required concentration (about 3 times with PBS solution) before gavage administration. After gavage, an ointment containing NO-NSAID was applied to the hind paws of the rats, while the control group was applied with a blank ointment. After application, the rats were placed in a fixed cylinder for 4 hours. After 4 hours, the rats were released and the residual ointment was wiped off with clean water, then the rats were returned to the cage. The gavage frequency of inhibitors was shown in Table 2-2, and NO-NSAID was only applied once a day. The gavage and application operations were repeated daily until the end of the experiment.
Table 2-2 lists the animal experimental combinations of various anti-tumor agents and NO-NSAID ointments, as well as the corresponding experimental results (wherein the value in the control rate column=the hand-foot syndrome incidence rate in the blank group−the hand-foot syndrome incidence rate in the treatment group).

HUVEC cells = assay: CCK-8 cell viability: alleviation of proliferative toxicity of anti-tumor agents on HUVEC cells (Tables 7-1, 7-2); assay type: cell-based; conditions: for activation at 100 µM: Homo sapiens, 24 h, percentage increase in viable cells vs anti-tumor agent alone, read-out: Response rate % (average)
Description: The cultured HUVEC cells were digested the suspended, counted, and seed into a 96-well plate with 5,000-10,000 cells per well. The wells are divided into the following groups: blank control group, anti-tumor agent group, anti-tumor agent+NO-NSAID group, anti-tumor agent solvent group, NO-NSAID control group. Wherein each well of each group contained a basic medium, and the final liquid volume contained in each well was about 100 μL. The grouping situation was as follows: • 1) Blank control group: no solution was added except normally replacing the medium; • 2) Anti-tumor agent group: added the anti-tumor agent solution (the final concentration was shown in Table 7-1 and Table 7-2, the solvent of the anti-tumor agent solution was DMSO); • 3) Anti-tumor agent+NO-NSAID group: added the anti-tumor agent solution and the NO-NSAID solution (the final concentrations of anti-tumor agent and NO-NSAID were shown in Table 7-1 and Table 7-2, and according to the solubility of NO-NSAID, the solvent of NO-NSAID solution was selected as ethanol or sterile water, and minor volume differences in each group were adjusted by added the corresponding solvent); • 4) Anti-tumor agent solvent group: an equal volume of DMSO as contained in the corresponding anti-tumor agent solution in Group 2) was added; • 5) NO-NSAID control group: the same volume and type of solvent (for example, ethanol or sterile water) corresponding to the NO-NSAID contained in group 3) was added.
The anti-tumor agent solvent group was not involved in data processing and was only used as a reference for evaluating experimental system error. The NO-NSAID solvent control group was used for data correction to eliminate the influence of the solvent on the results.
After culturing for 24-48 hours, the Cell Counting Kit-8 (CCK-8) detection kit (C0037, Shanghai Beyotime Biotechnology Co., Ltd., Beyotime Biotechnology) was used to determine the cell viability. This allows for the calculation of the proliferative toxicity of anti-tumor agent on cell and the mitigating effect of NO-NSAID on proliferative toxicity. The results were statistically analyzed and plotted using GraphPad Prism 6.0 software and t test.

[2] = 120 h, Sorafenib 80 mg/kg once a day, Days 5
[3] = 432 h, Cabozantinib 50 mg/kg once a day, Days 18
[4] = 432 h, Lenvatinib 100 mg/kg twice a day, Days 18
[5] = 432 h, Nintedanib 110 mg/kg once a day, Days 18
[6] = 432 h, Regorafenib 90 mg/kg once a day, Days 18
[7] = Afatinib (10 μM), NO-NSAID 100 μM
[8] = Cabozantinib (5 μM), NO-NSAID 100 μM
[9] = Dabrafenib (10 μM), NO-NSAID 100 μM
[10] = Everolimus (5 μM), NO-NSAID 100 μM
[11] = Infigratinib (15 μM), NO-NSAID 100 μM
[12] = Lapatinib (5 μM), NO-NSAID 100 μM
[13] = Lenvatinib (10 μM), NO-NSAID 100 μM
[14] = Olmutinib (10 μM), NO-NSAID 100 μM
[15] = Regorafenib (5 μM), NO-NSAID 100 μM
[16] = Selumetinib (5 μM), NO-NSAID 100 μM
[17] = Sorafenib (5 μM), NO-NSAID 100 μM
[18] = Sunitinib (5 μM), NO-NSAID 100 μM

COc1ccc2cc(C(C)C(=O)OCCCCO[N+](=O)[O-])ccc2c1 (stereo not drawn) [Compound A5]
responders at 0.5 % [1, 2]: 28.6%
responders at 1 % [1, 2]: 50%
responders at 2.5 % [1, 2]: 71.4%
responders at 5 % [1, 2]: 80%
responders at 2.5 % ([1]; 360 h, Apatinib 105 mg/kg once a day, Days 15): 42.9%
responders at 2.5 % ([1]; 360 h, Encorafenib 80 mg/kg once a day, Days 15): 66.7%
responders at 2.5 % ([1]; 360 h, Lapatinib 120 mg/kg twice a day, Days 15): 60%
responders at 2.5 % ([1]; 360 h, Sunitinib 120 mg/kg once a day, Days 15): 57.1%
responders at 2.5 % ([1]; 384 h, Fruquintinib 40 mg/kg once a day, Days 16): 42.9%
responders at 2.5 % ([1]; 432 h, Anlotinib 20 mg/kg once a day, Days 18): 50%
responders at 2.5 % ([1]; 432 h, Axitinib 50 mg/kg once a day, Days 18): 66.7%
responders at 1 % [1, 3]: 42.9%
responders at 2.5 % [1, 3]: 60%
responders at 5 % [1, 3]: 57.1%
responders at 1 % [1, 4]: 28.6%
responders at 2.5 % [1, 4]: 71.4%
responders at 5 % [1, 4]: 71.4%
responders at 1 % [1, 5]: 40%
responders at 2.5 % [1, 5]: 66.7%
responders at 5 % [1, 5]: 50%
responders at 0.5 % [1, 6]: 50%
responders at 1 % [1, 6]: 71.4%
responders at 2.5 % [1, 6]: 71.4%
responders at 5 % [1, 6]: 83.3%
responders at 2.5 % ([1]; 480 h, Erdafitinib 45 mg/kg once a day, Days 20): 57.1%
responders at 2.5 % ([1]; 480 h, Olmutinib 100 mg/kg once a day, Days 20): 66.7%
NO-NSAID response rate % (average) (HUVEC cells; Afatinib (10 μM), NO-NSAID 0.1 μM): 24%
NO-NSAID response rate % (average) (HUVEC cells; Afatinib (10 μM), NO-NSAID 1 μM): 28%
NO-NSAID response rate % (average) (HUVEC cells; [7]): 69%
NO-NSAID response rate % (average) (HUVEC cells; Afatinib (10 μM), NO-NSAID 500 μM): 22%
NO-NSAID response rate % (average) (HUVEC cells; Cabozantinib (5 μM), NO-NSAID 0.1 μM): 1%
NO-NSAID response rate % (average) (HUVEC cells; Cabozantinib (5 μM), NO-NSAID 1 μM): 15%
NO-NSAID response rate % (average) (HUVEC cells; [8]): 60%
NO-NSAID response rate % (average) (HUVEC cells; Cabozantinib (5 μM), NO-NSAID 500 μM): 24%
NO-NSAID response rate % (average) (HUVEC cells; Dabrafenib (10 μM), NO-NSAID 0.1 μM): 27%
NO-NSAID response rate % (average) (HUVEC cells; Dabrafenib (10 μM), NO-NSAID 1 μM): 28%
NO-NSAID response rate % (average) (HUVEC cells; [9]): 65%
NO-NSAID response rate % (average) (HUVEC cells; Dabrafenib (10 μM), NO-NSAID 500 μM): 31%
NO-NSAID response rate % (average) (HUVEC cells; Everolimus (5 μM), NO-NSAID 0.1 μM): 0%
NO-NSAID response rate % (average) (HUVEC cells; Everolimus (5 μM), NO-NSAID 1 μM): −7%
NO-NSAID response rate % (average) (HUVEC cells; [10]): 28%
NO-NSAID response rate % (average) (HUVEC cells; Everolimus (5 μM), NO-NSAID 500 μM): −2%
activation at 100 µM (HUVEC cells; [7]): 69%
activation at 100 µM (HUVEC cells; Anlotinib (5 μM), NO-NSAID 100 μM): 57%
activation at 100 µM (HUVEC cells; Apatinib (10 μM), NO-NSAID 100 μM): 59%
activation at 100 µM (HUVEC cells; Axitinib (10 μM), NO-NSAID 100 μM): -2%
activation at 100 µM (HUVEC cells; [8]): 60%
activation at 100 µM (HUVEC cells; [9]): 65%
activation at 100 µM (HUVEC cells; Dacomitinib (5 μM), NO-NSAID 100 μM): 75%
activation at 100 µM (HUVEC cells; Encorafenib (5 μM), NO-NSAID 100 μM): 28%
activation at 100 µM (HUVEC cells; Erdafitinib (10 μM), NO-NSAID 100 μM): 43%
activation at 100 µM (HUVEC cells; [10]): 28%
activation at 100 µM (HUVEC cells; Famitinib (5 μM), NO-NSAID 100 μM): 35%
activation at 100 µM (HUVEC cells; Fruquintinib (10 μM), NO-NSAID 100 μM): 37%
activation at 100 µM (HUVEC cells; Gefitinib (10 μM), NO-NSAID 100 μM): 21%
activation at 100 µM (HUVEC cells; [11]): 48%
activation at 100 µM (HUVEC cells; [12]): 62%
activation at 100 µM (HUVEC cells; [13]): 32%
activation at 100 µM (HUVEC cells; [14]): 48%
activation at 100 µM (HUVEC cells; [15]): 83%
activation at 100 µM (HUVEC cells; [16]): 61%
activation at 100 µM (HUVEC cells; [17]): 1%
activation at 100 µM (HUVEC cells; [18]): 44%
activation at 100 µM (HUVEC cells; Vemurafenib (5 μM), NO-NSAID 100 μM): 24%
NO-NSAID response rate % (average) (HUVEC cells; Infigratinib (15 μM), NO-NSAID 0.1 μM): 28%
NO-NSAID response rate % (average) (HUVEC cells; Infigratinib (15 μM), NO-NSAID 1 μM): 30%
NO-NSAID response rate % (average) (HUVEC cells; [11]): 48%
NO-NSAID response rate % (average) (HUVEC cells; Infigratinib (15 μM), NO-NSAID 500 μM): 34%
NO-NSAID response rate % (average) (HUVEC cells; Lapatinib (5 μM), NO-NSAID 0.1 μM): 26%
NO-NSAID response rate % (average) (HUVEC cells; Lapatinib (5 μM), NO-NSAID 1 μM): 35%
NO-NSAID response rate % (average) (HUVEC cells; [12]): 62%
NO-NSAID response rate % (average) (HUVEC cells; Lapatinib (5 μM), NO-NSAID 500 μM): 36%
NO-NSAID response rate % (average) (HUVEC cells; Lenvatinib (10 μM), NO-NSAID 0.1 μM): 11%
NO-NSAID response rate % (average) (HUVEC cells; Lenvatinib (10 μM), NO-NSAID 1 μM): 44%
NO-NSAID response rate % (average) (HUVEC cells; [13]): 32%
NO-NSAID response rate % (average) (HUVEC cells; Lenvatinib (10 μM), NO-NSAID 500 μM): 16%
NO-NSAID response rate % (average) (HUVEC cells; Olmutinib (10 μM), NO-NSAID 0.1 μM): 19%
NO-NSAID response rate % (average) (HUVEC cells; Olmutinib (10 μM), NO-NSAID 1 μM): 34%
NO-NSAID response rate % (average) (HUVEC cells; [14]): 48%
NO-NSAID response rate % (average) (HUVEC cells; Olmutinib (10 μM), NO-NSAID 500 μM): 39%
NO-NSAID response rate % (average) (HUVEC cells; Regorafenib (5 μM), NO-NSAID 0.1 μM): 29%
NO-NSAID response rate % (average) (HUVEC cells; Regorafenib (5 μM), NO-NSAID 1 μM): 46%
NO-NSAID response rate % (average) (HUVEC cells; [15]): 83%
NO-NSAID response rate % (average) (HUVEC cells; Regorafenib (5 μM), NO-NSAID 500 μM): 22%
NO-NSAID response rate % (average) (HUVEC cells; Selumetinib (5 μM), NO-NSAID 0.1 μM): 38%
NO-NSAID response rate % (average) (HUVEC cells; Selumetinib (5 μM), NO-NSAID 1 μM): 42%
NO-NSAID response rate % (average) (HUVEC cells; [16]): 61%
NO-NSAID response rate % (average) (HUVEC cells; Selumetinib (5 μM), NO-NSAID 500 μM): 26%
NO-NSAID response rate % (average) (HUVEC cells; Sorafenib (5 μM), NO-NSAID 0.1 μM): 20%
NO-NSAID response rate % (average) (HUVEC cells; Sorafenib (5 μM), NO-NSAID 1 μM): 20%
NO-NSAID response rate % (average) (HUVEC cells; [17]): 1%
NO-NSAID response rate % (average) (HUVEC cells; Sorafenib (5 μM), NO-NSAID 500 μM): 3%
NO-NSAID response rate % (average) (HUVEC cells; Sunitinib (5 μM), NO-NSAID 0.1 μM): 20%
NO-NSAID response rate % (average) (HUVEC cells; Sunitinib (5 μM), NO-NSAID 1 μM): 40%
NO-NSAID response rate % (average) (HUVEC cells; [18]): 44%
NO-NSAID response rate % (average) (HUVEC cells; Sunitinib (5 μM), NO-NSAID 500 μM): 31%
